Here are results for one compound from patent US11117888B2, “Irreversible inhibitors of pyruvate kinase M2 and the use thereof” (China Medical University, priority 2020, dated 2021).

Molecules are shown by their SMILES.

The target of assay [1] is PKM2 (Homo sapiens, UniProt P14618). Briefly: Covalent adduct formation with recombinant PKM2 (anti-compound 1 antibodies, nanoLC-MS/MS site mapping). It counts as binding. Also on record: made in house. Here is the method: As this cell-based kinase assay could not rule out the involvement of PKM1, we examined the abilities of compound 1 to inhibit the kinase activity of recombinant PKM2 (SAE0021, Sigma-Aldrich) versus recombinant PKM1 (SRP0415, Sigma-Aldrich) using a commercial PKM assay kit. […] In brief, PC-9 cells were exposed to different concentrations of compound 2 in the presence of compound 1 (1 μM) for 1 hour, lysed, and the cell lysates were treated with biotin-azide, followed by streptavidin bead pulldown under the aforementioned conditions. […] The antigen of compound 1 was prepared by coupling this small molecule with cysteine residues of ovalbumin, which was then used for immunization in guinea pigs.
Preparation of anti-compound 1 antiserum. compound 1 was coupled to the cysteine thiolate in ovalbumin (OVA) via the propiolyl moiety under alkaline conditions by using the modifications to a published method. […]
As PKM2 has a total of 10 cysteine residues (NCBI reference sequence: NM_002654), we conducted proteomic analysis to identify which cysteine residues were covalently modified by compound 1. […] In general, the modification site assignment was considered reliable if the b and y ions flanking the implicated site could be detected, with mass shifts corresponding to a compound 1-modified cysteine (+516.1773 Da). […]

Assay [2] has as its system PC-9 cells. Kind of assay: Seahorse Glycolysis Stress assay (ECAR and OCR). It counts as cell-based, human. The source says: In light of the role of PKM2 in promoting glycolysis, we hypothesized that the antitumor activity of compound 1 might, in part, be attributable to its ability to reverse the glycolytic phenotype (i.e., Warburg effect) of cancer cells. Accordingly, we examined the effects of compound 1 on the extracellular acidification rate (ECAR) and cellular oxygen consumption rate (OCR) in PC-9 cells, which represent key bioenergetic parameters of glycolysis (lactate production) and mitochondrial respiration (oxidative phosphorylation), respectively, using a commercial kit (Agilent Seahorse XF Glycolysis Stress Test Kit). In the ECAR measurement, glucose, oligomycin (an ATP synthetase inhibitor), and 2-deoxyglucose (2-DG; a hexokinase/glycolysis inhibitor) were added in tandem to glucose-starved cells at different time intervals to activate or interfere with glycolysis, thereby allowing the calculation of the glycolytic flux and glycolytic capacity. […] Meanwhile, the OCR response, a parameter for oxidative phosphorylation, was concurrently monitored. […] It is noteworthy that when glucose was added to the basal medium, there was a decrease in the OCR in the control group. This phenomenon was previously referred to as the “Crabtree effect”, i.e., when glucose is added to activate glycolysis, it might be more favorable for cells to generate ATP through substrate-level phosphorylation, thereby reducing the need of oxidative phosphorylation. However, this glucose-induced drop in OCR became less apparent in the presence of compound 1, which might be associated with the ability of compound 1 to block glycolysis.
Glycolysis Stress assay. Extracellular acidification rate (ECAR) and oxygen consumption rate (OCR) were measured using a Seahorse Bioscience XF96 extracellular flux analyzer (Seahorse Bioscience) according to the manufacturer's protocol. PC-9 ells (5×10^4) were seeded in 96 Seahorse XF Cell Culture Microplate with normal growth medium 24 hours before treatment with compounds. The cells were treated with DMSO or compound 1 for 4 hours at 37° C. under 5% CO2 atmosphere. […]

Sequence of PKM2 (P14618 whole entry): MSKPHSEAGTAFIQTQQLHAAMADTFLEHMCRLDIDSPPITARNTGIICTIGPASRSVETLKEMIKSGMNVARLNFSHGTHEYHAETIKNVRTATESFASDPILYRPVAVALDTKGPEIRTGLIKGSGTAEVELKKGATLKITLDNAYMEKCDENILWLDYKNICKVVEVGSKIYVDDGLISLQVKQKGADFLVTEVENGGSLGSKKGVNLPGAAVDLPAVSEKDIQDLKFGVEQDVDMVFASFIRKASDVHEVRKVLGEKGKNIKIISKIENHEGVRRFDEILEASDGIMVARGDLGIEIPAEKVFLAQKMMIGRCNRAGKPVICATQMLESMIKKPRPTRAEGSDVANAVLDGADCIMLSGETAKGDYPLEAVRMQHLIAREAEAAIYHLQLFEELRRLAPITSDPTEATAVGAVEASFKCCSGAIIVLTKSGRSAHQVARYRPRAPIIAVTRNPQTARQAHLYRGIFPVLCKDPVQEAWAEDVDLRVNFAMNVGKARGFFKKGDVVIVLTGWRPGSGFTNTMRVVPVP

Turning to `C#CC(=O)Nc1ccc(-n2nc(CCC(=O)NC)cc2-c2ccc(-c3ccc(C(F)(F)F)cc3)cc2)cc1` [compound 1, N-(4-(3-(3-(Methylamino)-3-oxopropyl)-5-(4′-(trifluoromethyl)-[1,1′-biphenyl]-4-yl)-1H-pyrazol-1-yl)phenyl)propiolamide], the “covalent adduct with recombinant PKM2 (anti-compound 1 antibodies)” value in assay [1] (Western blot, 4° C. for 6 hours) is reported as “antibodies cross reacted with compound 1-treated PKM2”. Besides, in assay [1] (tryptic digestion, nanoLC-MS/MS), the “cysteine residues of PKM2 covalently modified” value is “covalently coupled to the two cysteine residues Cys317 and Cys326”. In addition, in assay [2] (0.25-1 μM, 4 hours), the “glycolytic acidification (ECAR)” value is listed as “suppressed the glycolytic acidification in a concentration-dependent manner” and the “non-glycolytic acidification (ECAR)” value is listed as “no appreciable effect”. Besides, in assay [2] (prior to glucose supplementation, relative to DMSO), the “oxygen consumption rate (OCR), basal state” value is given as “increase oxygen consumption in the basal state”.
